# Measurements taken from patent publication US11331369B2, “Endoparasitic depsipeptides” (Zoetis Services LLC, priority 2017, dated 2022).
# Test system: microfilariae of Dirofilaria immitis
# Experiment: Dirofilaria immitis, Microfilaria (DiMF) In vitro Assay
# Assay type: cell-based
# Settings: 72 h, read-out: DiMF Minimum Effective Dose (MED), approximately 72 hours incubation, microfilariae assessed for survival or paralysis
row,SMILES,minimal effective concentration
1,"CC(C)C[C@H]1C(=O)O[C@H](Cc2ccc(Cn3cc(OC4COC4)cn3)cc2)C(=O)N(C)[C@@H](CC(C)C)C(=O)O[C@H](C)C(=O)N(C)[C@@H](CC(C)C)C(=O)O[C@H](Cc2ccc(Cn3cc(OC4COC4)cn3)cc2)C(=O)N(C)[C@@H](CC(C)C)C(=O)O[C@H](C)C(=O)N1C [Example 1b-142, (3S,6R,9S,12R,15S,18R,21S,24R)-3,9,15,21-tetraisobutyl-4,6,10,16,18,22-hexamethyl-12,24-bis(4-((4-(oxetan-3-yloxy)-1H-pyrazol-1-yl)methyl)benzyl)-1,7,13,19-tetraoxa-4,10,16,22-tetraazacyclotetracosan-2,5,8,11,14,17,20,23-octaone]",0.001 to 0.01 µM
2,"CC(C)C[C@H]1C(=O)O[C@H](Cc2ccc(Cn3nccc3N)cc2)C(=O)N(C)[C@@H](CC(C)C)C(=O)O[C@H](C)C(=O)N(C)[C@@H](CC(C)C)C(=O)O[C@H](Cc2ccc(Cn3nccc3N)cc2)C(=O)N(C)[C@@H](CC(C)C)C(=O)O[C@H](C)C(=O)N1C [Example 1b-144, (3S,6R,9S,12R,15S,18R,21S,24R)-6,18-bis(4-((5-amino-1H-pyrazol-1-yl)methyl)benzyl)-3,9,15,21-tetraisobutyl-4,10,12,16,22,24-hexamethyl-1,7,13,19-tetraoxa-4,10,16,22-tetraazacyclotetracosan-2,5,8,11,14,17,20,23-octaone]",0.01 to 0.1 µM
3,"CC(C)C[C@H]1C(=O)O[C@H](Cc2ccc(Cn3ccc(OC(F)F)n3)cc2)C(=O)N(C)[C@@H](CC(C)C)C(=O)O[C@H](C)C(=O)N(C)[C@@H](CC(C)C)C(=O)O[C@H](Cc2ccc(Cn3ccc(OC(F)F)n3)cc2)C(=O)N(C)[C@@H](CC(C)C)C(=O)O[C@H](C)C(=O)N1C [Example 1b-156, (3S,6R,9S,12R,15S,18R,21S,24R)-6,18-bis(4-((3-(difluoromethoxy)-1H-pyrazol-1-yl)methyl)benzyl)-3,9,15,21-tetraisobutyl-4,10,12,16,22,24-hexamethyl-1,7,13,19-tetraoxa-4,10,16,22-tetraazacyclotetracosan-2,5,8,11,14,17,20,23-octaone]",0.01 to 0.1 µM
4,"CCOc1cc(C)n(Cc2ccc(C[C@H]3OC(=O)[C@H](CC(C)C)N(C)C(=O)[C@@H](C)OC(=O)[C@H](CC(C)C)N(C)C(=O)[C@@H](Cc4ccc(Cn5nc(OCC)cc5C)cc4)OC(=O)[C@H](CC(C)C)N(C)C(=O)[C@@H](C)OC(=O)[C@H](CC(C)C)N(C)C3=O)cc2)n1 [Example 1b-159, (3S,6R,9S,12R,15S,18R,21S,24R)-6,18-bis(4-((3-ethoxy-5-methyl-1H-pyrazol-1-yl)methyl)benzyl)-3,9,15,21-tetraisobutyl-4,10,12,16,22,24-hexamethyl-1,7,13,19-tetraoxa-4,10,16,22-tetraazacyclotetracosan-2,5,8,11,14,17,20,23-octaone]",0.01 to 0.1 µM
5,"CC(C)C[C@H]1C(=O)O[C@H](Cc2ccc(Cn3cc(CO)c(C(F)(F)F)n3)cc2)C(=O)N(C)[C@@H](CC(C)C)C(=O)O[C@H](C)C(=O)N(C)[C@@H](CC(C)C)C(=O)O[C@H](Cc2ccc(Cn3cc(CO)c(C(F)(F)F)n3)cc2)C(=O)N(C)[C@@H](CC(C)C)C(=O)O[C@H](C)C(=O)N1C [Example 1b-162, (3S,6R,9S,12R,15S,18R,21S,24R)-6,18-bis(4-((4-(hydroxymethyl)-3-(trifluoromethyl)-1H-pyrazol-1-yl)methyl)benzyl)-3,9,15,21-tetraisobutyl-4,10,12,16,22,24-hexamethyl-1,7,13,19-tetraoxa-4,10,16,22-tetraazacyclotetracosan-2,5,8,11,14,17,20,23-octaone]",0.01 to 0.1 µM
